Patent publication US9669050B2, “Composition for prevention or treatment of hyperlipidemia, fatty liver or obesity” (BENEBIOSIS CO., LTD., priority 2008, dated 2017)
Entries after “also recorded” stand apart in the source; their conditions may differ.

Key:
[1] = test system: high-fat diet SD rats; test: Improvement of fatty liver in high-fat diet rats (dissection, observation); assay type: in vivo, rat; details: orally administered, FIGS. 8a and 8b
Source text: In order to investigate 3′-SL's effect of improving fatty liver, high-fat diet SD rats were dissected and the liver and other organs were observed.

[2] = test system: high-fat diet C56BL/6 male mice; test: Body weight change and food intake of high-fat diet mice; assay type: in vivo, mouse; details: for Weight increase / Final weight: peritoneal injection every day; for Comparison of body weight increase, SL vs. ND: compared to normal diet mice
Experimental: 4 week-old C56BL/6 male mice were purchased from Dooyeul Biotech (Korea). Water was allowed freely and commercially available pellet feed (Dooyeul Biotech, Korea) was given for a week. The mice were grouped into six groups (six per each group) as follows: ND, normal diet group (normal group); HD, high-fat (60% fat) diet [purchased from Research Diets (New Brunswick, USA)] group (control group); and HD+SL (0.1 mg/kg), HD+SL (0.5 mg/kg), HD+SL (1.0 mg/kg) and HD+SL (5.0 mg/kg), high-fat diet groups treated with sialyllactose (SL, Sigma). Sialyllactose or PBS was administered every day by peritoneal injection. The mice were kept in cages for 50 days and sacrificed after fasting for 12 hours. Food intake and body weight change were measured every 7 days. 3′-Sialyllactose (3′-N-acetylneuraminyl-D-lactose, 3′-sialyl-D-lactose or α-NeuNAc-(2→3)-β-D-Gal-(1→4)-D-Glc) and 6′-sialyllactose (6′-N-acetylneuraminyl-lactose, 6′-sialyl-D-lactose or α-NeuNAc-(2→6)-β-D-Gal-(1→4)-D-Glc) were purchased from Sigma-Aldrich.

[3] = test system: high-fat diet C56BL/6 male mice; test: Serum lipid and leptin levels in high-fat diet mice; assay type: in vivo, mouse; details: for Leptin / HDL-cholesterol / HDL/TC / LDL/TC / Total cholesterol (TC) / Triglyceride / LDL-cholesterol: peritoneal injection every day, 50 days; for Leptin: ELISA; for HDL-cholesterol / HDL/TC / LDL/TC / Total cholesterol (TC) / Triglyceride / LDL-cholesterol: serum; for LDL-cholesterol: calculated by Equation 1
Experimental: (§1) Blood was taken from the liver of the C56BL/6 male mice. The blood was coagulated, centrifuged for 15 minutes at 13,000 rpm, and kept at −20° C. until serum analysis. High-density lipoprotein (HDL)-cholesterol level was measured using an HDL kit (YD Diagnostics, Korea). Triglyceride (TG) was analyzed using a TG kit (YD Diagnostics) based on enzymologic method. Total cholesterol was analyzed using a cholesterol E kit (YD Diagnostics). Low-density lipoprotein (LDL)-cholesterol level was calculated from triglyceride level, total cholesterol level and HDL-cholesterol level according to Equation 1: LDL-cholesterol=total cholesterol−{[…]} Equation 1
Leptin level was measured using a mouse leptin ELISA kit (Millipore) and a rat leptin ELISA kit (Millipore).

[4] = test system: high-fat diet SD rats; test: Serum lipid levels in high-fat diet rats; assay type: in vivo, rat; details: HD + SL 1 mg/kg
Experimental: as §1
Blood was taken from the liver of the SD rats, and lipid levels were analyzed in the same manner as the experiment with the C57BL/6 male mice.

[5] = test system: high-fat diet SD rats; test: Body weight change, food and water intake of high-fat diet rats; assay type: in vivo, rat; details: orally administered every day, 7 weeks
Experimental: 4 week-old Sprague-Dawley (SD) rats were purchased from Dooyeul Biotech (Korea). Water was allowed freely and commercially available pellet feed (Dooyeul Biotech, Korea) was given for a week. The rats were grouped into four groups (six per each group) as follows: ND, normal diet group (normal group); HD, high-fat (60% fat) diet [purchased from Research Diets (New Brunswick, USA)] group (control group); and HD+SL (1 mg/kg) and HD+SL (5 mg/kg), high-fat diet groups treated with SL (Sigma). 3′-SL or deionized water (DW) was orally administered every day. The mice were kept in cages for 7 weeks and sacrificed after fasting for 12 hours. Food intake and body weight change were measured every 5 days.

[6] = test system: high-fat diet C56BL/6 male mice; test: Improvement of fatty liver in high-fat diet mice (dissection, observation); assay type: in vivo, mouse; details: peritoneally administered, FIG. 4
Source text: In order to investigate 3′-SL's effect of improving fatty liver, high-fat diet C56BL/6 male mice were dissected and the liver and other organs were observed.

[7] = test system: high-fat diet SD rats; test: Subcutaneous, perirenal and retroperitoneal fat weight in high-fat diet rats; assay type: in vivo, rat; details: orally administered for 6 weeks, FIG. 7
Experimental: As described above, 4 week-old SD rats were treated with high-fat diet and 3′-SL for 6 weeks. Then, subcutaneous fat, perirenal fat and retroperitoneal fat were isolated from the rats and weighed.

[8] = high-fat diet + SL 5 mg/kg peritoneally injected, 50 days

CC(=O)N[C@H]1[C@H]([C@H](O)[C@H](O)CO)O[C@@](O[C@H]2[C@@H](O)[C@@H](CO)O[C@@H](O[C@H]3[C@H](O)[C@@H](O)C(O)O[C@@H]3CO)[C@@H]2O)(C(=O)O)C[C@@H]1O (stereo partly drawn) [3′-SL, α-NeuNAc-(2→3)-β-D-Gal-(1→4)-D-Glc]
fatty liver, fat accumulation in liver and other organs (in words) [1]: fat accumulation reduced markedly | Weight increase ([2]; HD + SL 0.1 mg/kg): 8.94 ± 0.43 g/50 day | Final weight ([2]; HD + SL 0.1 mg/kg, 50 days): 31.34 ± 1.15 g | Weight increase ([2]; HD + SL 0.5 mg/kg): 7.52 ± 0.74 g/50 day | Final weight ([2]; HD + SL 0.5 mg/kg, 50 days): 30.42 ± 0.51 g | Weight increase ([2]; HD + SL 1.0 mg/kg): 5.60 ± 0.77 g/50 day | Final weight ([2]; HD + SL 1.0 mg/kg, 50 days): 29.00 ± 0.82 g | Weight increase ([2]; HD + SL 5.0 mg/kg): 6.68 ± 0.28 g/50 day | Final weight ([2]; HD + SL 5.0 mg/kg, 50 days): 28.68 ± 0.95 g | Comparison of body weight increase, SL vs. ND [2, 8]: 51.5% | Leptin ([3]; HD + SL 0.1 mg/kg): 66.59 ± 43.57 ng/mL | HDL-cholesterol ([3]; HD + SL 0.1 mg/kg): 53.27 ± 5.08 mg/dL | HDL/TC ([3]; HD + SL 0.1 mg/kg): 0.40 ± 0.04 | LDL/TC ([3]; HD + SL 0.1 mg/kg): 0.43 ± 0.02 | Total cholesterol (TC) ([3]; HD + SL 0.1 mg/kg): 135.05 ± 13.58 mg/dL | Triglyceride ([3]; HD + SL 0.1 mg/kg): 166.78 ± 6.60 mg/dL | LDL-cholesterol ([3]; HD + SL 0.1 mg/kg): 58.16 ± 3.74 mg/dL | Leptin ([3]; HD + SL 0.5 mg/kg): 38.73 ± 5.58 ng/mL | HDL-cholesterol ([3]; HD + SL 0.5 mg/kg): 55.74 ± 3.18 mg/dL | HDL/TC ([3]; HD + SL 0.5 mg/kg): 0.51 ± 0.02 | LDL/TC ([3]; HD + SL 0.5 mg/kg): 0.45 ± 0.12 | Total cholesterol (TC) ([3]; HD + SL 0.5 mg/kg): 108.25 ± 3.06 mg/dL | Triglyceride ([3]; HD + SL 0.5 mg/kg): 112.99 ± 8.16 mg/dL | LDL-cholesterol ([3]; HD + SL 0.5 mg/kg): 48.43 ± 13.91 mg/dL | Leptin ([3]; HD + SL 1.0 mg/kg): 19.29 ± 14.24 ng/mL | HDL-cholesterol ([3]; HD + SL 1.0 mg/kg): 49.29 ± 3.40 mg/dL | HDL/TC ([3]; HD + SL 1.0 mg/kg): 0.39 ± 0.01 | LDL/TC ([3]; HD + SL 1.0 mg/kg): 0.37 ± 0.12 | Total cholesterol (TC) ([3]; HD + SL 1.0 mg/kg): 126.30 ± 7.75 mg/dL | Triglyceride ([3]; HD + SL 1.0 mg/kg): 94.28 ± 5.66 mg/dL | LDL-cholesterol ([3]; HD + SL 1.0 mg/kg): 46.03 ± 13.79 mg/dL | Leptin ([3]; HD + SL 5.0 mg/kg): 6.64 ± 2.93 ng/mL | HDL-cholesterol ([3]; HD + SL 5.0 mg/kg): 48.97 ± 1.62 mg/dL | HDL/TC ([3]; HD + SL 5.0 mg/kg): 0.44 ± 0.05 | LDL/TC ([3]; HD + SL 5.0 mg/kg): 0.27 ± 0.04 | Total cholesterol (TC) ([3]; HD + SL 5.0 mg/kg): 112.97 ± 12.54 mg/dL | Triglyceride ([3]; HD + SL 5.0 mg/kg): 89.78 ± 4.31 mg/dL | LDL-cholesterol ([3]; HD + SL 5.0 mg/kg): 29.91 ± 2.69 mg/dL | effect on serum lipid levels (in words) ([4]; compared to the control group): higher HDL-cholesterol level and lower LDL-cholesterol, total cholesterol and triglyceride levels as compared to the control group | HDL-cholesterol ([4]; oral, serum): 88.73 ± 1.32 | HDL/total cholesterol ([4]; oral, serum): 0.52 ± 0.04 | LDL/total cholesterol ([4]; oral, serum): 0.34 ± 0.03 | Total cholesterol ([4]; oral, serum): 171.44 ± 12.8 | Triglyceride ([4]; oral, serum): 149.00 ± 3.86 | LDL-cholesterol ([4]; oral, serum, calculated by Equation 1): 57.91 ± 1.39 | Final weight ([5]; HD + SL 1.0 mg/kg): 454.17 ± 10.37 g | Weight increase ([5]; HD + SL 1.0 mg/kg): 4.05 ± 0.16 g/day | Final weight ([5]; HD + SL 5.0 mg/kg): 443.33 ± 19.56 g | Weight increase ([5]; HD + SL 5.0 mg/kg): 3.66 ± 0.32 g/day | fatty liver, fat accumulation in liver and other organs (in words) [6]: fat accumulation was not observed in the liver or other organs | subcutaneous, perirenal and retroperitoneal fat weight (in words) [7]: decreased subcutaneous fat, perirenal fat and retroperitoneal fat in a dose-dependent manner

CC(=O)N[C@H]1[C@H]([C@H](O)[C@H](O)CO)O[C@@](OC[C@H]2O[C@@H](O[C@H]3[C@H](O)[C@@H](O)[C@H](O)O[C@@H]3CO)[C@H](O)[C@@H](O)[C@H]2O)(C(=O)O)C[C@@H]1O [6′-SL, α-NeuNAc-(2→6)-β-D-Gal-(1→4)-D-Glc]
Weight increase ([2]; HD + SL 0.1 mg/kg): 7.82 ± 1.44(*) g/50 day | Final weight ([2]; HD + SL 0.1 mg/kg, 50 days): 26.82 ± 0.92 g | Weight increase ([2]; HD + SL 0.5 mg/kg): 7.68 ± 2.82(*) g/50 day | Final weight ([2]; HD + SL 0.5 mg/kg, 50 days): 25.74 ± 1.93 g | Weight increase ([2]; HD + SL 1.0 mg/kg): 7.99 ± 1.15(*) g/50 day | Final weight ([2]; HD + SL 1.0 mg/kg, 50 days): 25.62 ± 1.33 g | Weight increase ([2]; HD + SL 5.0 mg/kg): 6.88 ± 1.80(*) g/50 day | Final weight ([2]; HD + SL 5.0 mg/kg, 50 days): 25.92 ± 0.95 g | body weight decrease compared to normal diet mice [2, 8]: 4.7% | Comparison of body weight increase, SL vs. ND [2, 8]: −4.7% | effect on body weight increase (in words) ([2]; high-fat diet mice, peritoneal injection, 50 days): significant decrease in body weight increase; also recorded: more effective in body weight loss than 3′-SL; also recorded: less body weight increase than the normal diet mice | Leptin ([3]; HD + SL 0.1 mg/kg): 11.50 ± 3.72 ng/mL | HDL-cholesterol ([3]; HD + SL 0.1 mg/kg): 70.71 ± 14.15 mg/dL | HDL/TC ([3]; HD + SL 0.1 mg/kg): 0.55 ± 0.08(*) | LDL/TC ([3]; HD + SL 0.1 mg/kg): 0.33 ± 0.07(*) | Total cholesterol (TC) ([3]; HD + SL 0.1 mg/kg): 126.68 ± 10.7 mg/dL | Triglyceride ([3]; HD + SL 0.1 mg/kg): 74.48 ± 3.77 mg/dL | LDL-cholesterol ([3]; HD + SL 0.1 mg/kg): 41.07 ± 6.34 mg/dL | Leptin ([3]; HD + SL 0.5 mg/kg): 6.71 ± 0.93 ng/mL | HDL-cholesterol ([3]; HD + SL 0.5 mg/kg): 76.33 ± 10.53 mg/dL | HDL/TC ([3]; HD + SL 0.5 mg/kg): 0.58 ± 0.05(*) | LDL/TC ([3]; HD + SL 0.5 mg/kg): 0.31 ± 0.05(*) | Total cholesterol (TC) ([3]; HD + SL 0.5 mg/kg): 130.54 ± 8.10 mg/dL | Triglyceride ([3]; HD + SL 0.5 mg/kg): 71.05 ± 5.88 mg/dL | LDL-cholesterol ([3]; HD + SL 0.5 mg/kg): 40.00 ± 4.25 mg/dL | Leptin ([3]; HD + SL 1.0 mg/kg): 5.15 ± 1.61 ng/mL | HDL-cholesterol ([3]; HD + SL 1.0 mg/kg): 57.44 ± 0.87 mg/dL | HDL/TC ([3]; HD + SL 1.0 mg/kg): 0.53 ± 0.03(*) | LDL/TC ([3]; HD + SL 1.0 mg/kg): 0.36 ± 0.02(*) | Total cholesterol (TC) ([3]; HD + SL 1.0 mg/kg): 109.14 ± 9.86 mg/dL | Triglyceride ([3]; HD + SL 1.0 mg/kg): 60.69 ± 7.69 mg/dL | LDL-cholesterol ([3]; HD + SL 1.0 mg/kg): 39.56 ± 8.53 mg/dL | Leptin ([3]; HD + SL 5.0 mg/kg): 6.47 ± 1.64 ng/mL | HDL-cholesterol ([3]; HD + SL 5.0 mg/kg): 62.73 ± 8.58 mg/dL | HDL/TC ([3]; HD + SL 5.0 mg/kg): 0.54 ± 0.05(*) | LDL/TC ([3]; HD + SL 5.0 mg/kg): 0.35 ± 0.10(*) | Total cholesterol (TC) ([3]; HD + SL 5.0 mg/kg): 115.36 ± 14.9 mg/dL | Triglyceride ([3]; HD + SL 5.0 mg/kg): 61.34 ± 3.84 mg/dL | LDL-cholesterol ([3]; HD + SL 5.0 mg/kg): 40.36 ± 2.69 mg/dL | effect on LDL-cholesterol, total cholesterol, triglyceride and leptin levels (in words) ([3]; high-fat diet mice, compared to the high-fat diet group): much better effect of reducing LDL-cholesterol, total cholesterol, triglyceride and leptin levels than 3′-SL
